Legend:
[1] = biological target: T1, BTK (Homo sapiens (Human), UniProt Q06187); assay: Determination of drug-kinase residence time (TR-FRET tracer competition, occupancy after washout); type: binding; conditions: 1.5 μM compound, 500 nM BTK; for % occupany at 1 h: 1 h of washout; for % occupany at 6 h: 6 h of washout; for % occupany at 24 h: 24 h of washout
Description: The experiment was conducted in a buffer consisting of 50 mM Hepes pH 7.5, 10 mM MgCl2, 0.01% Triton X-100, and 1 mM EGTA.
The mixture was then diluted 5-fold by addition of 40 μL of buffer. […] In order to probe for reversibility of the kinase-compound binding interaction, a competition solution containing both a high affinity fluorescent tracer and an antibody coupled to Europium was prepared. […] The competition solution also contained 80 nM of an Anti-polyhistidine antibody coupled to Europium (Invitrogen Cat. #PV5596) which is designed to bind the polyhistidine purification tag in BTK.
It is to be expected that covalent and slow dissociating inhibitors will block binding of the tracer while rapidly dissociating non-covalent inhibitors will not. […] Data were plotted at percentage of signal obtained in the absence of competitor compound. The background signal was obtained by omission of BTK from the reaction. […] If the compound is a reversible covalent inhibitor, the tracer will bind the target as the compound dissociates from the target.

[2] = biological target: T1, BTK; assay: BTK enzymatic activity assay (Caliper-based kinase assay); type: biochemical; conditions: human recombinant BTK 0.5 nM, ATP 16 μM, 3 h room temperature
Description: A Caliper-based kinase assay (Caliper Life Sciences, Hopkinton, Mass.) was used to measure inhibition of BTK kinase activity of a compound of the present disclosure. […] The reaction was then terminated with EDTA, final concentration 20 mM and the phosphorylated reaction product was quantified on a Caliper Desktop Profiler (Caliper LabChip 3000). […] This value is presented as the IC50.

T1 sequence (Q06187 whole entry): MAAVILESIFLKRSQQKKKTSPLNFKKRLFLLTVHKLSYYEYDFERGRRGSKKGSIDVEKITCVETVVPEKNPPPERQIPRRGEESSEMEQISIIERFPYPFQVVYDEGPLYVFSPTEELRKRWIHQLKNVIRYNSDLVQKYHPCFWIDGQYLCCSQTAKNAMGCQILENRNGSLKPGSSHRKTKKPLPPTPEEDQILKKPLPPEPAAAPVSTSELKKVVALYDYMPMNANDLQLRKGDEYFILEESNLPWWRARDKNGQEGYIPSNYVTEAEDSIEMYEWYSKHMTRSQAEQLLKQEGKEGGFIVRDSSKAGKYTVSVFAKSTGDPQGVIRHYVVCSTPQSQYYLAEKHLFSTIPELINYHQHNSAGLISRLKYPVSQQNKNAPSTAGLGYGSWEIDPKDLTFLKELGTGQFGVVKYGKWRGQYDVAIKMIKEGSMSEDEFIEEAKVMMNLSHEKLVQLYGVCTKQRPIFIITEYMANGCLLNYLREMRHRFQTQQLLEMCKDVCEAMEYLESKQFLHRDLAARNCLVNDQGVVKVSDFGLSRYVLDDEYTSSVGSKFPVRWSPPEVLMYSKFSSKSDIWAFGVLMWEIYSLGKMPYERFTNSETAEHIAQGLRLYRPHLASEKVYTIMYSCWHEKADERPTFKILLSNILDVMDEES

SMILES	% occupany at 1 h [1]	% occupany at 6 h [1]	% occupany at 24 h [1]	IC50 [2]
CC(C)(C=C(C#N)C(=O)N1CCC[C@@H](n2c(=O)n(-c3ccc(Oc4ccccc4)cc3)c3c(N)nccc32)C1)N1CCN(CC(F)(F)F)CC1 [Compound 6, (R)-2-(3-(4-amino-2-oxo-3-(4-phenoxyphenyl)-2,3-dihydro-1H-imidazo[4,5-c]pyridin-1-yl)piperidine-1-carbonyl)-4-methyl-4-(4-(2,2,2-trifluoroethyl)piperazin-1-yl)pent-2-enenitrile]	94.404%	86.64%	67.505%	5.9 nM
CC1(C=C(C#N)C(=O)N2CCC[C@@H](n3c(=O)n(-c4ccc(Oc5ccccc5)cc4)c4c(N)nccc43)C2)CCC1 [Compound 3, (R)-2-(3-(4-amino-2-oxo-3-(4-phenoxyphenyl)-2,3-dihydro-1H-imidazo[4,5-c]pyridin-1-yl)piperidine-1-carbonyl)-3-(1-methylcyclobutyl)acrylonitrile]	65.626%	58.519%	46.073%	21.6 nM
CC(C)(C=C(C#N)C(=O)N1CCC[C@@H](n2c(=O)n(-c3ccc(Oc4ccccc4)cc3)c3c(N)nccc32)C1)N1CCN(C2COC2)CC1 [Compound 5, (R)-2-(3-(4-amino-2-oxo-3-(4-phenoxyphenyl)-2,3-dihydro-1H-imidazo[4,5-c]pyridin-1-yl)piperidine-1-carbonyl)-4-methyl-4-(4-(oxetan-3-yl)piperazin-1-yl)pent-2-enenitrile]	93.773%	83.103%	57.488%	2.5 nM
CN1CCC(C(C)(C)C=C(C#N)C(=O)N2CCC[C@@H](n3c(=O)n(-c4ccc(Oc5ccccc5)cc4)c4c(N)nccc43)C2)CC1 [Compound 7, (R)-2-(3-(4-amino-2-oxo-3-(4-phenoxyphenyl)-2,3-dihydro-1H-imidazo[4,5-c]pyridin-1-yl)piperidine-1-carbonyl)-4-methyl-4-(1-methylpiperidin-4-yl)pent-2-enenitrile]	61.932%	−1.3946%	−12.344%	1.8 nM
COCCN1CCN(C(C)(C)C=C(C#N)C(=O)N2CCC[C@@H](n3c(=O)n(-c4ccc(Oc5ccccc5)cc4)c4c(N)nccc43)C2)CC1 [Compound 9, (R)-2-(3-(4-amino-2-oxo-3-(4-phenoxyphenyl)-2,3-dihydro-1H-imidazo[4,5-c]pyridin-1-yl)piperidine-1-carbonyl)-4-(4-(2-methoxyethyl)piperazin-1-yl)-4-methylpent-2-enenitrile]	93.363%	70.733%	31.4%	7.8 nM
CC(C)(C=C(C#N)C(=O)N1CCC[C@H]1Cn1c(=O)n(-c2ccc(Oc3ccccc3)cc2)c2c(N)nccc21)N1CCOCC1 [Compound 14, (S)-2-(2-((4-amino-2-oxo-3-(4-phenoxyphenyl)-2,3-dihydro-1H-imidazo[4,5-c]pyridin-1-yl)methyl)pyrrolidine-1-carbonyl)-4-methyl-4-morpholinopent-2-enenitrile]	91.481%	76.396%	22.922%	17.2 nM
CC#CC(=O)N1CCC[C@@H](n2c(=O)n(-c3ccc(Oc4ccccc4)cc3)c3c(N)nccc32)C1 [Compound 17, (R)-4-amino-1-(1-(but-2-ynoyl)piperidin-3-yl)-3-(4-phenoxyphenyl)-1H-imidazo[4,5-c]pyridin-2(3H)-one]	81.247%	78.623%	74.744%	13.3 nM
CC(C)(C=C(C#N)C(=O)N1CCC[C@@H](n2c(=O)n(-c3ccc(Oc4ccccc4)cc3)c3c(N)nccc32)C1)N1CCOCC1 [Compound 4, (R)-2-(3-(4-amino-2-oxo-3-(4-phenoxyphenyl)-2,3-dihydro-1H-imidazo[4,5-c]pyridin-1-yl)piperidine-1-carbonyl)-4-methyl-4-morpholinopent-2-enenitrile]	90.005%	66.344%	18.2%	7.8 nM
CC(C)(C)C=C(C#N)C(=O)N1CCC[C@@H](n2c(=O)n(-c3ccc(Oc4ccccc4)cc3)c3c(N)nccc32)C1 [Compound 1, (R)-2-(3-(4-amino-2-oxo-3-(4-phenoxyphenyl)-2,3-dihydro-1H-imidazo[4,5-c]pyridin-1-yl)piperidine-1-carbonyl)-4,4-dimethylpent-2-enenitrile]	97.036%	82.199%	70.975%	8.2 nM
N#CC(=CC1CCOCC1)C(=O)N1CCC[C@@H](n2c(=O)n(-c3ccc(Oc4ccccc4)cc3)c3c(N)nccc32)C1 [Compound 2, (R)-2-(3-(4-amino-2-oxo-3-(4-phenoxyphenyl)-2,3-dihydro-1H-imidazo[4,5-c]pyridin-1-yl)piperidine-1-carbonyl)-3-(tetrahydro-2H-pyran-4-yl)acrylonitrile]	93.602%	85.49%	65.826%	9.1 nM
CC(C)(C)C=C(C#N)C(=O)N1CCC[C@H]1Cn1c(=O)n(-c2ccc(Oc3ccccc3)cc2)c2c(N)nccc21 [Compound 12, (S)-2-(2-((4-amino-2-oxo-3-(4-phenoxyphenyl)-2,3-dihydro-1H-imidazo[4,5-c]pyridin-1-yl)methyl)pyrrolidine-1-carbonyl)-4,4-dimethylpent-2-enenitrile]	95.906%	96.44%	90.847%	6.6 nM
CC(C)(C=C(C#N)C(=O)N1CCC[C@H]1Cn1c(=O)n(-c2ccc(Oc3ccccc3)cc2)c2c(N)nccc21)N1CCN(C2COC2)CC1 [Compound 13, (S)-2-(2-((4-amino-2-oxo-3-(4-phenoxyphenyl)-2,3-dihydro-1H-imidazo[4,5-c]pyridin-1-yl)methyl)pyrrolidine-1-carbonyl)-4-methyl-4-(4-(oxetan-3-yl)piperazin-1-yl)pent-2-enenitrile]	91.54%	83.963%	49.152%	21.1 nM
COC(=O)N1CCN(C(C)(C)C=C(C#N)C(=O)N2CCC[C@H]2Cn2c(=O)n(-c3ccc(Oc4ccccc4)cc3)c3c(N)nccc32)CC1 [Compound 15, (S)-methyl 4-(5-(2-((4-amino-2-oxo-3-(4-phenoxyphenyl)-2,3-dihydro-1H-imidazo[4,5-c]pyridin-1-yl)methyl)pyrrolidin-1-yl)-4-cyano-2-methyl-5-oxopent-3-en-2-yl)piperazine-1-carboxylate]	91.927%	85.356%	50.188%	72.3 nM
COC(=O)N1CCN(C(C)(C)C=C(C#N)C(=O)N2CCC[C@@H](n3c(=O)n(-c4ccc(Oc5ccccc5)cc4)c4c(N)nccc43)C2)CC1 [Compound 10, (R)-methyl 4-(5-(3-(4-amino-2-oxo-3-(4-phenoxyphenyl)-2,3-dihydro-1H-imidazo[4,5-c]pyridin-1-yl)piperidin-1-yl)-4-cyano-2-methyl-5-oxopent-3-en-2-yl)piperazine-1-carboxylate]	94.392%	77.985%	49.145%	7 nM
CN1CCN(C(C)(C)C=C(C#N)C(=O)N2CCC[C@@H](n3c(=O)n(-c4ccc(Oc5ccccc5)cc4)c4c(N)nccc43)C2)CC1=O [Compound 18, (R)-2-(3-(4-amino-2-oxo-3-(4-phenoxyphenyl)-2,3-dihydro-1H-imidazo[4,5-c]pyridin-1-yl)piperidine-1-carbonyl)-4-methyl-4-(4-methyl-3-oxopiperazin-1-yl)pent-2-enenitrile]	93.065%	73.513%	31.704%	3.7 nM
CC1(C=C(C#N)C(=O)N2CCC[C@@H](n3c(=O)n(-c4ccc(Oc5ccccc5)cc4)c4c(N)ncnc43)C2)CCN(C2COC2)CC1 [Compound 32, (R)-2-(3-(6-amino-8-oxo-7-(4-phenoxyphenyl)-7H-purin-9(8H)-yl)piperidine-1-carbonyl)-3-(4-methyl-1-(oxetan-3-yl)piperidin-4-yl)acrylonitrile]	–	–	–	2.9 nM

Reference: patent publication US9688676B2, “Tyrosine kinase inhibitors” (PRINCIPIA BIOPHARMA INC., priority 2015, dated 2017)
